Measured values: patent US20230265151A1, “GIP/GLP1 CO-AGONIST COMPOUNDS” (priority 2020, published 2023)
Like-named read-outs stand apart in the source and are kept apart here. *1 amine or outer side, *2 acyl side, *3 side chain or, on linkers, in order; H or OH if unused. Where a SMILES comes first, the peptide text is derived from it. Side-chain parts run from the residue outwards. [ ]: non-standard residue; d: D form. The star is where a group is joined. αMePhe(2-F) = C[C@](N)(Cc1ccccc1F)C(=O)O; γGlu = O=C(O)[C@H](CCC(=O)[*:2])N[*:1]; αMeY = C[C@](N)(Cc1ccc(O)cc1)C(=O)O; αMeF = C[C@](N)(Cc1ccccc1)C(=O)O; 4Pal = N[C@@H](Cc1ccncc1)C(=O)O; αMeL = CC(C)C[C@](C)(N)C(=O)O; Lauroyl = CCCCCCCCCCCC(=O)*; Orn = NCCC[C@H](N)C(=O)O; AEEA = NCCOCCOCC(=O)O; Aib = CC(C)(N)C(=O)O

What was measured:
Type in all cases: cell-based
hGLP-1R = hGLP-1R (Homo sapiens, UniProt P43220); assay: Functional cAMP formation (HTRF) in HEK-293 clonal cells expressing hGLP-1R, 0.1% bovine casein, without or with 1.0% human serum albumin; set-up: expressed in transfected cells; settings: for Emax: read-out: hGLP-1R Emax, % ± SEM; for EC50: geometric mean, read-out: hGLP-1R EC50, nM (SEM, n)
Chain of hGLP-1R (P43220 24-463): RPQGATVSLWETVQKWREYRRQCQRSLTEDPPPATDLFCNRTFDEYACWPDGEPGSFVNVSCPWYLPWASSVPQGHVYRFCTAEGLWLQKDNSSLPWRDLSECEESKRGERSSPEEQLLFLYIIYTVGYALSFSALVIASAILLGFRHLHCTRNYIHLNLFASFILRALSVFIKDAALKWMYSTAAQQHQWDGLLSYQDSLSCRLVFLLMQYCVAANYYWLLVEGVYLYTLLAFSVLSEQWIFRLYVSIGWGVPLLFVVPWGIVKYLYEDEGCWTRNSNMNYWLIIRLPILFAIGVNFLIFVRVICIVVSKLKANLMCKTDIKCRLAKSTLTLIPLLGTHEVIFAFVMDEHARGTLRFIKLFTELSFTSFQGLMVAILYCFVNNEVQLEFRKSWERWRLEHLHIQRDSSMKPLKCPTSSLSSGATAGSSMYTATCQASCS
How it was run: (§1)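 Readings of the HTRF 665/620 nm ratio, which falls as cAMP rises, were converted to nM cAMP using a standard curve after 30 min peptide exposure at 37° C.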

hGCGR = molecular target: T1, hGCGR (Homo sapiens, UniProt P47871); assay: Functional cAMP formation (HTRF) in HEK-293 clonal cells expressing hGCGR, 0.1% bovine casein, without or with 1.0% human serum albumin; settings: read-out: hGCGR EC50, nM (SEM, n)
T1 construct: expressed in transfected cells
T1 sequence (P47871 26-477): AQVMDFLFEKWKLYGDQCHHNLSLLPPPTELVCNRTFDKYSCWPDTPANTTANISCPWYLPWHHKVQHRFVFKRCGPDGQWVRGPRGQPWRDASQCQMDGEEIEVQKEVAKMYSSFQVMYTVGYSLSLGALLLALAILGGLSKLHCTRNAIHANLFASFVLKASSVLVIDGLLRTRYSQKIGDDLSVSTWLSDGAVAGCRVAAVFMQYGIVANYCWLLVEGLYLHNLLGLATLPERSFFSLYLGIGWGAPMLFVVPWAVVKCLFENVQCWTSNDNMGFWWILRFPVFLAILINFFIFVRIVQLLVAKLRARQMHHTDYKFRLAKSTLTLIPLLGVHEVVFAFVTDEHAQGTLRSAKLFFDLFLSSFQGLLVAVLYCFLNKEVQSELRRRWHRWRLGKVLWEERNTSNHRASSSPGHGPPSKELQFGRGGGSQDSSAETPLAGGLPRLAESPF
How it was run: as §1

hGIPR = molecular target: T2, hGIPR (Homo sapiens, UniProt P48546); assay: Functional cAMP formation (HTRF) in HEK-293 clonal cells expressing hGIPR, 0.1% bovine casein, without or with 1.0% human serum albumin; settings: for Emax: read-out: hGIPR Emax, % ± SEM; for EC50: geometric mean, read-out: hGIPR EC50, nM (SEM, n)
T2 construct: expressed in transfected cells
T2 sequence (P48546 22-466): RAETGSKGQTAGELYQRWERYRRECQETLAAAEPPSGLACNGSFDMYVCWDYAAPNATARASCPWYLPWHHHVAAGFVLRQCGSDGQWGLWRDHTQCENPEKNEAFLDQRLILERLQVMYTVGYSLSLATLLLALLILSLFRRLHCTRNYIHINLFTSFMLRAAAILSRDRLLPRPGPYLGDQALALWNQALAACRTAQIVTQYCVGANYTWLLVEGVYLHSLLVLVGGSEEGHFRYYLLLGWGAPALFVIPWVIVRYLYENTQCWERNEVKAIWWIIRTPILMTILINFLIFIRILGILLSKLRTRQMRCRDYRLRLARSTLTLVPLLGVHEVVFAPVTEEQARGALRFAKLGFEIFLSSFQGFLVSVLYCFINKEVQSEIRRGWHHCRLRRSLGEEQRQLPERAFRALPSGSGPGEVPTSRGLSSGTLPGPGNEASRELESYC
How it was run: as §1

[1] = HEK293, percent of maximal response to GLP-1(7-36)NH2, 37° C., 0.1% bovine casein, arithmetic mean
[2] = cAMP, incubated at 37° C., 0.1% bovine casein (no human serum albumin)
[3] = 0.1% bovine casein and 1.0% human serum albumin, 37° C., geometric mean
[4] = cAMP, incubated at 37° C., 0.1% bovine casein (no human serum albumin), geometric mean
[5] = HEK293, 0.1% bovine casein and 1.0% human serum albumin, 37° C., percent of maximal response to GIP(1-42)NH2
[6] = HEK293, percent of maximal response to GIP(1-42)NH2, 37° C., 0.1% bovine casein, arithmetic mean
[7] = 0.1% bovine casein and 1.0% human serum albumin, 37° C.
[8] = cAMP, 37° C., 0.1% bovine casein (no human serum albumin)

SMILES	Emax (hGLP-1R; HEK293, 0.1% bovine casein and 1.0% human serum albumin, 37° C., percent of maximal response to GLP-1(7-36)NH2) [%]	Emax (hGLP-1R; [1]) [%]	EC50 (hGLP-1R; [2]) [nM]	EC50 (hGCGR; [3]) [nM]	EC50 (hGCGR; [4]) [nM]	Emax (hGIPR; [5]) [%]	Emax (hGIPR; [6]) [%]	EC50 (hGIPR; [2]) [nM]	EC50 (hGLP-1R; [7]) [nM]	EC50 (hGIPR; [7]) [nM]	Emax (hGLP-1R; HEK293, cAMP, 37° C., 0.1% bovine casein and 1.0% human serum albumin, percent of maximal response to GLP-1(7-36)NH2) [%]	Emax (hGLP-1R; HEK293, cAMP, 37° C., 0.1% bovine casein, percent of maximal response to GLP-1(7-36)NH2, arithmetic mean) [%]	EC50 (hGLP-1R; [8]) [nM]	EC50 (hGCGR; cAMP, 37° C., 0.1% bovine casein (no human serum albumin), geometric mean) [nM]	EC50 (hGCGR; cAMP, 37° C., 0.1% bovine casein and 1.0% human serum albumin, geometric mean (SEM, n)) [nM]	Emax (hGIPR; HEK293, cAMP, 37° C., 0.1% bovine casein and 1.0% human serum albumin, percent of maximal response to GIP(1-42)NH2) [%]	Emax (hGIPR; HEK293, cAMP, 37° C., 0.1% bovine casein, percent of maximal response to GIP(1-42)NH2, arithmetic mean) [%]	EC50 (hGIPR; [8]) [nM]
CC[C@H](C)[C@H](NC(=O)[C@H](CCCN)NC(=O)[C@H](CC(=O)O)NC(=O)[C@H](CC(C)C)NC(=O)[C@](C)(CC(C)C)NC(=O)[C@@H](NC(=O)[C@H](CO)NC(=O)[C@H](Cc1ccncc1)NC(=O)[C@H](CC(=O)O)NC(=O)[C@H](CO)NC(=O)[C@@H](NC(=O)[C@](C)(Cc1ccccc1F)NC(=O)[C@@H](NC(=O)CNC(=O)[C@H](CCC(=O)O)NC(=O)C(C)(C)NC(=O)[C@@H](N)Cc1ccc(O)cc1)[C@@H](C)O)[C@@H](C)O)[C@@H](C)CC)C(=O)N[C@@H](C)C(=O)N[C@@H](CCC(N)=O)C(=O)NC(C)(C)C(=O)N[C@@H](CCCCNC(=O)COCCOCCNC(=O)COCCOCCNC(=O)CCCCCCCCCCCCC(=O)O)C(=O)N[C@@H](Cc1ccccc1)C(=O)N[C@H](C(=O)N[C@H](CCC(=O)O)C(=O)N[C@@](C)(Cc1ccc(O)cc1)C(=O)N[C@@H](CC(C)C)C(=O)N[C@H](C(=O)N[C@@H](CCCCNC(=O)COCCOCCNC(=O)COCCOCCNC(=O)CCCCCCCCCCCCC(=O)O)C(=O)NCC(=O)NCC(=O)N1CCC[C@H]1C(=O)N[C@@H](CO)C(=O)N[C@@H](CO)C(=O)NCC(=O)N[C@@H](C)C(=O)N1CCC[C@H]1C(=O)N1CCC[C@H]1C(=O)N1CCC[C@H]1C(=O)N[C@@H](CO)C(N)=O)[C@@H](C)CC)[C@@H](C)CC [Example 222]	117	91.6	0.518	> 9950	> 9950	77.9	98.7	0.0195										
CC[C@H](C)[C@H](NC(=O)[C@H](CC(C)C)NC(=O)[C@](C)(Cc1ccc(O)cc1)NC(=O)[C@@H](CCC(=O)O)NC(=O)[C@@H](NC(=O)[C@H](Cc1ccccc1)NC(=O)[C@H](CCC(=O)O)NC(=O)[C@H](Cc1ccncc1)NC(=O)[C@H](CCC(N)=O)NC(=O)[C@H](C)NC(=O)[C@H](CCCCNC(=O)COCCOCCNC(=O)COCCOCCNC(=O)CC[C@H](NC(=O)CCCCCCCCCCCCC(=O)O)C(=O)O)NC(=O)[C@H](CCCN)NC(=O)[C@H](CC(=O)O)NC(=O)[C@H](CC(C)C)NC(=O)[C@](C)(CC(C)C)NC(=O)[C@@H](NC(=O)[C@H](CO)NC(=O)[C@H](Cc1ccncc1)NC(=O)[C@H](CC(=O)O)NC(=O)[C@H](CO)NC(=O)[C@@H](NC(=O)[C@](C)(Cc1ccccc1F)NC(=O)[C@@H](NC(=O)CNC(=O)[C@H](CCC(=O)O)NC(=O)C(C)(C)NC(=O)[C@@H](N)Cc1ccc(O)cc1)[C@@H](C)O)[C@@H](C)O)[C@@H](C)CC)[C@@H](C)CC)C(=O)N[C@@H](CCC(=O)O)C(=O)NCC(=O)NCC(=O)N[C@@H](CCCCNC(=O)COCCOCCNC(=O)COCCOCCNC(=O)CC[C@H](NC(=O)CCCCCCCCCCCCC(=O)O)C(=O)O)C(=O)N[C@@H](CO)C(=O)N[C@@H](CO)C(=O)NCC(=O)N[C@@H](C)C(=O)N1CCC[C@H]1C(=O)N1CCC[C@H]1C(=O)N1CCC[C@H]1C(=O)N[C@@H](CO)C(N)=O [Example 156]		110			> 9950		89.9											
CC[C@H](C)[C@H](NC(=O)[C@H](CC(C)C)NC(=O)[C@](C)(Cc1ccc(O)cc1)NC(=O)[C@@H](CCC(=O)O)NC(=O)[C@@H](NC(=O)[C@H](Cc1ccccc1)NC(=O)[C@H](CCC(=O)O)NC(=O)C(C)(C)NC(=O)[C@H](CCC(N)=O)NC(=O)[C@H](C)NC(=O)[C@H](CCCCNC(=O)COCCOCCNC(=O)COCCOCCNC(=O)CC[C@H](NC(=O)CCCc1ccc(C(C)(C)C)cc1)C(=O)O)NC(=O)[C@H](CCCN)NC(=O)[C@H](CC(=O)O)NC(=O)[C@H](CC(C)C)NC(=O)[C@](C)(CC(C)C)NC(=O)[C@@H](NC(=O)[C@H](CO)NC(=O)[C@H](Cc1ccncc1)NC(=O)[C@H](CC(=O)O)NC(=O)[C@H](CO)NC(=O)[C@@H](NC(=O)[C@](C)(Cc1ccccc1F)NC(=O)[C@@H](NC(=O)CNC(=O)[C@H](CCC(=O)O)NC(=O)C(C)(C)NC(=O)[C@@H](N)Cc1ccc(O)cc1)[C@@H](C)O)[C@@H](C)O)[C@@H](C)CC)[C@@H](C)CC)C(=O)N[C@@H](CCC(=O)O)C(=O)NCC(=O)NCC(=O)N1CCC[C@H]1C(=O)N[C@@H](CO)C(=O)N[C@@H](CO)C(=O)NCC(=O)N[C@@H](C)C(=O)N1CCC[C@H]1C(=O)N1CCC[C@H]1C(=O)N1CCC[C@H]1C(=O)N[C@@H](CO)C(=O)N[C@@H](CCCCNC(=O)COCCOCCNC(=O)COCCOCCNC(=O)CC[C@H](NC(=O)CCCc1ccc(C(C)(C)C)cc1)C(=O)O)C(N)=O [Example 135]			0.271	> 9950	> 9950	91.2 ± 4.78	92.3 ± 2.64	0.0184	0.936	0.0609								
CCCCCCCCCCCC(=O)N[C@@H](CCC(=O)NCCOCCOCC(=O)NCCOCCOCC(=O)NCCOCCOCC(=O)NCCCC[C@H](NC(=O)[C@H](CCCN)NC(=O)[C@H](CC(=O)O)NC(=O)[C@H](CC(C)C)NC(=O)[C@](C)(CC(C)C)NC(=O)[C@@H](NC(=O)C(C)(C)NC(=O)[C@H](Cc1ccncc1)NC(=O)[C@H](CC(=O)O)NC(=O)[C@H](CO)NC(=O)[C@@H](NC(=O)[C@](C)(Cc1ccccc1F)NC(=O)[C@@H](NC(=O)CNC(=O)[C@H](CCC(=O)O)NC(=O)C(C)(C)NC(=O)[C@@H](N)Cc1ccc(O)cc1)[C@@H](C)O)[C@@H](C)O)[C@@H](C)CC)C(=O)N[C@@H](C)C(=O)N[C@@H](CCC(N)=O)C(=O)NC(C)(C)C(=O)N[C@@H](CCCCNC(=O)COCCOCCNC(=O)COCCOCCNC(=O)COCCOCCNC(=O)CC[C@H](NC(=O)CCCCCCCCCCC)C(=O)O)C(=O)N[C@@](C)(Cc1ccccc1)C(=O)N[C@H](C(=O)N[C@H](CCC(=O)O)C(=O)N[C@@](C)(Cc1ccc(O)cc1)C(=O)N[C@@H](CC(C)C)C(=O)N[C@H](C(=O)N[C@@H](CCC(=O)O)C(=O)NCC(=O)NCC(=O)N1CCC[C@H]1C(=O)N[C@@H](CO)C(=O)N[C@@H](CO)C(=O)NCC(=O)N[C@@H](C)C(=O)N1CCC[C@H]1C(=O)N1CCC[C@H]1C(=O)N1CCC[C@H]1C(=O)N[C@@H](CO)C(N)=O)[C@@H](C)CC)[C@@H](C)CC)C(=O)O [Example 437] (H-Y[Aib]EGT[αMePhe(2-F)]TSD[4Pal][Aib]I[αMeL]LD[Orn]K([AEEA-AEEA-AEEA-γGlu-Lauroyl])AQ[Aib]K([AEEA-AEEA-AEEA-γGlu-Lauroyl])[αMeF]I[dE][αMeY]LIEGGPSSGAPPPS-NH2)											91.2	89.2	0.249	> 9950	> 9950	96.5	94.8	0.0146
